Experimental data reported in ChEMBL document CHEMBL3808389, “Stable and biocompatible cystine knot peptides from the marine sponge Asteropus sp” (Bioorg Med Chem, 2016).
Where a SMILES comes first, the peptide text is derived from it. Bridges are numbered along the chain shown (N, C = ends). [ ]: non-standard residue; d: D form. ξ: configuration not given here. pGlu = O=C1CC[C@@H](C(=O)O)N1; ξpGlu = O=C1CCC(C(=O)O)N1

Experiments:
Plasma = assay: Metabolic stability in human plasma at 37 degC measured upto 12 hrs by reverse-phase HPLC analysis; format: ADME, cell-free
[1] = Thermal stability of the compound in phosphate buffer of pH 7.4 at 50 ug at 100 degC assessed as conformation changes by measuring changes in short wavelength region (195 nanometer) by CD analysis; format: physicochemical
[2] = Thermal stability of the compound in phosphate buffer of pH 7.4 at 50 ug at 25 degC by CD analysis; format: physicochemical
[3] = Toxicity in human RBC assessed as hemolytic activity at 50 uM measured after 1 hr by spectrophotometric analysis; format: cell-based, Erythrocyte; conditions: erythrocyte, 1 h, 50 µM
[4] = Toxicity in Thamnaconus modestus RBC assessed as hemolytic activity at 0.08 to 50 uM measured after 1 hr by spectrophotometric analysis; format: cell-based; conditions: erythrocyte
[5] = Chemical stability assessed as trypsin (unknown origin)-mediated degradation in simulated human intestinal fluid at 37 degC measured up to 12 hrs by reverse-phase HPLC analysis; format: ADME, physicochemical; conditions: simulated gi fluid
[6] = Chemical stability assessed as chymotrypsin (unknown origin)-mediated degradation in simulated human intestinal fluid at 37 degC measured up to 12 hrs by reverse-phase HPLC analysis; format: ADME, physicochemical; conditions: simulated gi fluid
[7] = Chemical stability assessed as pepsin (unknown origin)-mediated degradation in simulated human intestinal fluid at 37 degC measured up to 12 hrs by reverse-phase HPLC analysis; format: ADME, physicochemical; conditions: simulated gi fluid
[8] = Chemical stability assessed as elastase (unknown origin)-mediated degradation in simulated human intestinal fluid at 37 degC measured up to 12 hrs by reverse-phase HPLC analysis; format: ADME, physicochemical; conditions: simulated gi fluid
[9] = Thermal stability in Tris-acetate-EDTA buffer of pH 8.3 at 100 degC measured upto 12 hrs by reverse-phase HPLC analysis; format: physicochemical; conditions: pH 8.3, 12 h
RAW264.7 [10] = assay: Cytotoxicity against mouse RAW264.7 cells assessed as cell viability at 10 or 40 ug/ml measured after 24 hrs by WST assay; format: cell-based; conditions: raw264.7, 24 h
RAW264.7 [11] = assay: Toxicity in mouse RAW264.7 cells assessed as in induction of Nitric oxide production at 10 or 40 ug/ml measured after 24 hrs by Griess reaction method; format: cell-based; conditions: raw264.7, 24 h
Mus musculus [12] = assay: Toxicity in mouse assessed as aggressiveness at 40 mg/kg, ip after 12 hrs; format: organism-based; conditions: in vivo
Mus musculus [13] = assay: Toxicity in mouse assessed as stiff tail at 40 mg/kg, ip after 12 hrs; format: organism-based; conditions: in vivo
Mus musculus [14] = assay: Toxicity in mouse assessed as paralysis at 40 mg/kg, ip after 12 hrs; format: organism-based; conditions: in vivo
Mus musculus [15] = assay: Toxicity in mouse assessed as convulusion at 40 mg/kg, ip after 12 hrs; format: organism-based; conditions: in vivo
Mus musculus [16] = assay: Toxicity in mouse assessed as mortality at 40 mg/kg, ip after 7 days; format: organism-based; conditions: in vivo, 168 h
Mus musculus [17] = assay: Toxicity in mouse assessed as appearance changes at 40 mg/kg, ip after 7 days; format: organism-based; conditions: in vivo, 168 h
Mus musculus [18] = assay: Toxicity in mouse assessed as behavior changes at 40 mg/kg, ip after 7 days; format: organism-based; conditions: in vivo, 168 h
[19] = Cytotoxicity against rat Ac2F cells at 30 uM; format: cell-based
[20] = Toxicity in human RBC assessed as hemolytic activity at 2 uM measured after 1 hr by spectrophotometric analysis; format: cell-based; conditions: erythrocyte

| SMILES | Stability (Plasma) | Stability [1] | Stability [2] | Activity [3] | Activity [4] | Stability [5] | Stability [6] | Stability [7] | Stability [8] | Stability [9] | Activity (RAW264.7 [10]) | Activity (RAW264.7 [11]) | Activity (Mus musculus [12]) | Activity (Mus musculus [13]) | Activity (Mus musculus [14]) | Activity (Mus musculus [15]) | Activity (Mus musculus [16]) | Activity (Mus musculus [17]) | Activity (Mus musculus [18]) | Activity [19] | further results |
| --- | --- | --- | --- | --- | --- | --- | --- | --- | --- | --- | --- | --- | --- | --- | --- | --- | --- | --- | --- | --- | --- |
| CC[C@H](C)[C@@H]1NC(=O)[C@H](CC(C)C)NC(=O)CNC(=O)[C@H](CC(=O)O)NC(=O)[C@@H]2CSSC[C@H](NC(=O)[C@H](Cc3c[nH]c4ccccc34)NC(=O)C3CCC(=O)N3)C(=O)N[C@@H](C)C(=O)N[C@@H](CCC(=O)O)C(=O)N[C@@H](CCC(=O)O)C(=O)NCC(=O)N[C@@H](CCC(=O)O)C(=O)N[C@@H](CO)C(=O)N[C@H]3CSSC[C@H](NC1=O)C(=O)N[C@@H](Cc1ccc(O)cc1)C(=O)N1CCC[C@H]1C(=O)N[C@@H]([C@@H](C)O)C(=O)N[C@@H](Cc1ccccc1)C(=O)N1CCC[C@H]1C(=O)N[C@@H](CCC(=O)O)C(=O)N1CCC[C@H]1C(=O)N[C@@H]([C@@H](C)CC)C(=O)N[C@H](C(=O)NCC(=O)N[C@H](C(=O)O)C(C)C)CSSC[C@H](NC(=O)[C@@H]1CCCN1C(=O)[C@H](Cc1ccc(O)cc1)NC(=O)[C@H](C(C)C)NC(=O)[C@H](CCC(=O)O)NC3=O)C(=O)N2 (stereo partly drawn) ([ξpGlu]WCAEEGESCEVYPCCDGLICYPTFPEPICGV-OH; disulfide 3-16, 10-21, 15-30) | Stable | Unstable | Stable | Non-toxic | Non-toxic | Stable | Stable | Stable | Stable |  |  |  |  |  |  |  |  |  |  |  |  |
| CC[C@H](C)[C@@H]1NC(=O)[C@@H]2CSSC[C@@H]3NC(=O)[C@H](CO)NC(=O)[C@H](CCC(=O)O)NC(=O)CNC(=O)[C@H](CCC(=O)O)NC(=O)[C@H](Cc4ccccc4)NC(=O)[C@H](C)NC(=O)[C@@H](NC(=O)CNC(=O)C4CCC(=O)N4)CSSC[C@H](NC(=O)[C@H](CSSC[C@@H](C(=O)N[C@@H](Cc4ccc(O)cc4)C(=O)N[C@@H](Cc4ccc(O)cc4)C(=O)N[C@@H](CC(C)C)C(=O)O)NC(=O)[C@H]([C@@H](C)O)NC(=O)CNC(=O)[C@H](CC(=O)O)NC(=O)[C@@H]4CCCN4C(=O)[C@H](CC(N)=O)NC(=O)CNC(=O)[C@@H]4CCCN4C1=O)NC(=O)[C@@H]1CCCN1C(=O)[C@H](Cc1ccc(O)cc1)NC(=O)[C@H](Cc1ccccc1)NC(=O)[C@H](CCC(N)=O)NC(=O)[C@H](C(C)C)NC(=O)[C@H](CC(N)=O)NC3=O)C(=O)N1CCC[C@H]1C(=O)NCC(=O)N[C@@H](CC(C)C)C(=O)NCC(=O)N[C@@H](CC(C)C)C(=O)N[C@@H]([C@@H](C)O)C(=O)N2 (stereo partly drawn) ([ξpGlu]GCAFEGESCNVQFYPCCPGLGLTCIPGNPDGTCYYL-OH; disulfide 3-18, 10-25, 17-34) |  |  |  | Non-toxic | Non-toxic |  |  |  |  | Stable | Non-toxic | Non-toxic | Non-toxic | Non-toxic | Non-toxic | Non-toxic | Non-toxic | Non-toxic | Non-toxic |  |  |
| CC[C@H](C)[C@H](NC(=O)[C@@H](NC(=O)[C@H](Cc1ccc(O)cc1)NC(=O)[C@@H]1CSSC[C@@H]2NC(=O)[C@@H]3CCCN3C(=O)[C@H](CC(N)=O)NC(=O)[C@H](Cc3ccccc3)NC(=O)[C@H](CCC(=O)O)NC(=O)[C@H](C(C)C)NC(=O)[C@H](CC(=O)O)NC(=O)[C@@H]3CSSC[C@H](NC(=O)[C@H]([C@@H](C)O)NC(=O)[C@H](CC(C)C)NC(=O)[C@@H]4CCCN4C(=O)[C@@H]4CCCN4C(=O)[C@H](CSSC[C@H](NC(=O)[C@H](CC(=O)O)NC(=O)[C@@H]4CCC(=O)N4)C(=O)N4CCC[C@H]4C(=O)NCC(=O)N[C@@H](CCC(=O)O)C(=O)NCC(=O)N[C@@H](CCC(=O)O)C(=O)N[C@@H](CCC(N)=O)C(=O)N3)NC2=O)C(=O)N[C@@H]([C@@H](C)CC)C(=O)N2CCC[C@H]2C(=O)NCC(=O)N[C@@H](CC(=O)O)C(=O)N2CCC[C@H]2C(=O)N[C@@H](Cc2ccc(O)cc2)C(=O)NCC(=O)N[C@@H]([C@@H](C)CC)C(=O)N1)[C@@H](C)CC)C(=O)O ([pGlu]DCPGEGEQCDVEFNPCCPPLTCIPGDPYGICYII-OH; disulfide 3-18, 10-23, 17-32) |  |  |  | Non-toxic | Non-toxic |  |  |  |  | Stable | Non-toxic | Non-toxic | Non-toxic | Non-toxic | Non-toxic | Non-toxic | Non-toxic | Non-toxic | Non-toxic | Non-toxic |  |
| CC[C@H](C)[C@H](NC(=O)CN)C(=O)NCC(=O)N[C@@H](C)C(=O)N[C@H](C(=O)N[C@@H](CC(C)C)C(=O)N[C@@H](CCCCN)C(=O)N[C@H](C(=O)N[C@@H](CC(C)C)C(=O)N[C@H](C(=O)N[C@H](C(=O)NCC(=O)N[C@@H](CC(C)C)C(=O)N1CCC[C@H]1C(=O)N[C@@H](C)C(=O)N[C@@H](CC(C)C)C(=O)N[C@H](C(=O)N[C@@H](CO)C(=O)N[C@@H](Cc1c[nH]c2ccccc12)C(=O)N[C@H](C(=O)N[C@@H](CCCCN)C(=O)N[C@@H](CCCNC(=N)N)C(=O)N[C@@H](CCCCN)C(=O)N[C@@H](CCCNC(=N)N)C(=O)N[C@@H](CCC(N)=O)C(=O)N[C@@H](CCC(N)=O)C(N)=O)[C@@H](C)CC)[C@@H](C)CC)[C@@H](C)O)[C@@H](C)O)C(C)C)C(C)C [MELITTIN] |  |  |  |  |  |  |  |  |  |  |  |  |  |  |  |  |  |  |  |  | Activity [20]: Toxic |
| CC[C@H](C)[C@H](NC(=O)[C@@H](NC(=O)[C@H](Cc1ccc(O)cc1)NC(=O)[C@@H]1CSSC[C@@H]2NC(=O)[C@@H]3CCCN3C(=O)[C@H](CC(N)=O)NC(=O)[C@H](Cc3ccccc3)NC(=O)[C@H](CCC(=O)O)NC(=O)[C@H](C(C)C)NC(=O)[C@H](CC(=O)O)NC(=O)[C@@H]3CSSC[C@H](NC(=O)[C@H]([C@@H](C)O)NC(=O)[C@H](CC(C)C)NC(=O)[C@@H]4CCCN4C(=O)[C@@H]4CCCN4C(=O)[C@H](CSSC[C@H](N)C(=O)N4CCC[C@H]4C(=O)NCC(=O)N[C@@H](CCC(=O)O)C(=O)NCC(=O)N[C@@H](CCC(=O)O)C(=O)N[C@@H](CCC(=O)O)C(=O)N3)NC2=O)C(=O)N[C@@H]([C@@H](C)CC)C(=O)N2CCC[C@H]2C(=O)NCC(=O)N[C@@H](CC(=O)O)C(=O)N2CCC[C@H]2C(=O)N[C@@H](Cc2ccc(O)cc2)C(=O)NCC(=O)N[C@@H]([C@@H](C)CC)C(=O)N1)[C@@H](C)CC)C(=O)O (H-CPGEGEECDVEFNPCCPPLTCIPGDPYGICYII-OH; disulfide 1-16, 8-21, 15-30) | Stable | Unstable | Stable | Non-toxic | Non-toxic | Stable | Stable | Stable | Stable | Stable | Non-toxic | Non-toxic |  |  |  |  |  |  |  | Non-toxic |  |
